Measurements: patent US10138225B2 (Achillion Pharmaceuticals, Inc., priority 2015, dated 2018)

Molecular target: T1, Human Factor D (Homo sapiens, UniProt P00746)
T1 construct: purified from human serum; purchased Complement Technology, Inc; host or cells: human serum (natural protein, not recombinant)
Assay: Human Factor D Assay
Type: biochemical
Details: Table 1; Factor D 80 nM, substrate Z-L-Lys-SBzl; read-out: IC50
Procedure, shortened: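 Serum-purified human factor D (80 nM final) was preincubated with compound for 5 min at room temperature in 50 mM Tris, 1 M NaCl, pH 7.5. Z-L-Lys-SBzl and DTNB were added at 100 μM each, and A405 was read every 30 s for 30 min. IC50 came from nonlinear regression of reaction rates versus compound concentration.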

T1 sequence (P00746 26-253): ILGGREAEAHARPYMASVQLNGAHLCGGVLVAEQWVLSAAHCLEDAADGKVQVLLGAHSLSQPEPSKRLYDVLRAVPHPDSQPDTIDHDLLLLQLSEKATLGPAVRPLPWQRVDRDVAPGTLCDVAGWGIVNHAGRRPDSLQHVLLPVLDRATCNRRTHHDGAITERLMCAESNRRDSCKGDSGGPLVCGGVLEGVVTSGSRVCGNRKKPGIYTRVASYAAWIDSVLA

| SMILES | IC50 [µM] |
| --- | --- |
| CC(=O)c1cn(CC(=O)N2[C@@H]3C[C@@H]3C[C@H]2C(=O)NCc2cccc(Cl)c2F)c2ccc(NC(=O)NC3CC3)cc12 [Compound 3, (1R,3S,5R)-2-(2-(3-acetyl-5-(3-cyclopropylureido)-1H-indol-1-yl)acetyl)-N-(3-chloro-2-fluorobenzyl)-2-azabicyclo[3.1.0] hexane-3-carboxamide] | < 1 |
| CC(=O)c1cn(CC(=O)N2C[C@H](F)C[C@H]2C(=O)NCc2cccc(Cl)c2F)c2ccc(NC(=O)NC3(C)CC3)cc12 [Compound 4, (2S,4R)-1-(2-(3-acetyl-5-(3-(1-methylcyclopropyl)ureido)-1H-indol-1-yl)acetyl)-N-(3-chloro-2-fluorobenzyl)-4-fluoropyrrolidine-2-carboxamide] | < 1 |
| NC(=O)c1nn(CC(=O)N2[C@@H]3C[C@@H]3C[C@H]2C(=O)Nc2cccc(-c3ccccc3Cl)c2F)c2ccc(NC(=O)N3CCCC(F)(F)C3)cc12 [Compound 28, 1-(2-((1R,3S,5R)-3-(2′-chloro-2-fluorobiphenyl-3-ylcarbamoyl)-2-azabicyclo[3.1.0]hexan-2-yl)-2-oxoethyl)-5-(3,3-difluoropiperidine-1-carboxamido)-1H-indazole-3-carboxamide] | < 1 |
| NC(=O)c1nn(CC(=O)N2[C@@H]3C[C@@H]3C[C@H]2C(=O)Nc2cccc(OC(F)(F)F)c2F)c2ccc(NC(=O)N3CCCC(F)(F)C3)cc12 [Compound 27, 5-(3,3-difluoropiperidine-1-carboxamido)-1-(2-((1R,3S,5R)-3-(2-fluoro-3-(trifluoromethoxy)phenylcarbamoyl)-2-azabicylco[3.1.0]hexan-2-yl)-2-oxoethyl)-1H-indazole-3-carboxamide] | < 1 |
| CC(=O)c1cn(CC(=O)N2C[C@H](F)C[C@H]2C(=O)Nc2cccc(-c3ccccc3Cl)c2F)c2ccc(NC(=O)C3CCC(F)(F)C3)cc12 (stereo partly drawn) [Compound 35, (2S,4R)-1-(2-(3-acetyl-5-(3,3-difluorocyclopentane-carboxamido)-1H-indol-1-yl)acetyl)-N-(2′-chloro-2-fluorobiphenyl-3-yl)-4-fluoropyrrolidine-2-carboxamide] | < 1 |
| CC(=O)c1cn(CC(=O)N2C[C@H](F)C[C@H]2C(=O)Nc2cccc(OC(F)(F)F)c2F)c2ccc(NC(=O)N3CCCC(F)(F)C3)cc12 [Compound 17, N-(3-acetyl-1-(2-((2S,4R)-4-fluoro-2-(2-fluoro-3-(trifluoromethoxy)phenylcarbamoyl)pyrrolidin-1-yl)-2-oxoethyl)-1H-indol-5-yl)-3,3-difluoropiperidine-1-carboxamide] | < 1 |
| CC(=O)c1cn(CC(=O)N2C[C@H](F)C[C@H]2C(=O)NCc2cccc(Cl)c2F)c2cc(C(=O)NS(C)(=O)=O)ccc12 [Compound 43] | < 1 |
| CC(=O)c1cn(CC(=O)N2C[C@H](F)C[C@H]2C(=O)NCc2cccc(Cl)c2F)c2ccc(NC(=O)NCC(F)(F)F)cc12 [Compound 21, (2S,4R)-1-(2-(3-acetyl-5-(3-(2,2,2-trifluoroethyl)ureido)-1H-indol-1-yl)acetyl)-N-(3-chloro-2-fluorobenzyl)-4-fluoropyrrolidine-2-carboxamide] | < 1 |
| CC(=O)c1cn(CC(=O)N2C[C@H](F)C[C@H]2C(=O)NCc2cccc(Cl)c2F)c2cc(C(=O)N[C@H]3CCNC3)ccc12 [Compound 45, 3-acetyl-1-(2-((2S,4R)-2-(3-chloro-2-fluorobenzyl-carbamoyl)-4-fluoropyrrolidin-1-yl)-2-oxoethyl)-N-((S)-pyrrolidin-3-yl)-1H-indole-6-carboxamide] | < 1 |
| NC(=O)c1nn(CC(=O)N2C[C@H](F)C[C@H]2C(=O)Nc2cccc(OC(F)(F)F)c2F)c2ccc(NC(=O)N3CCCC(F)(F)C3)cc12 [Compound 26] | < 1 |
| CC(=O)c1cn(CC(=O)N2C[C@H](F)C[C@H]2C(=O)NCc2cccc(Cl)c2F)c2ccc(C(=O)N3CC=C(B(O)O)CC3)cc12 [Compound 38, 1-(3-acetyl-1-(2-((2S,4R)-2-(3-chloro-2-fluorobenzylcarbamoyl)-4-fluoropyrrolidin-1-yl)-2-oxoethyl)-1H-indole-5-carbonyl)-1,2,3,6-tetrahydropyridin-4-ylboronic acid] | < 1 |
| CC(=O)c1cn(CC(=O)N2C[C@H](F)C[C@H]2C(=O)NCc2cccc(Cl)c2F)c2cc(C(=O)N3CCC(CN)C3)ccc12 (stereo partly drawn) [Compound 42, (2S,4R)-1-(2-(3-acetyl-6-(3-(aminomethyl)-pyrrolidine-1-carbonyl)-1H-indol-1-yl)acetyl)-N-(3-chloro-2-fluorobenzyl)-4-fluoropyrrolidine-2-carboxamide] | < 1 |
| CC(=O)c1cn(CC(=O)N2C[C@H](F)C[C@H]2C(=O)NCc2cccc(Cl)c2F)c2ccc(NC(=O)Nc3ccon3)cc12 [Compound 19, (2S,4R)-1-(2-(3-acetyl-5-(3-isoxazol-3-ylureido)-1H-indol-1-yl)acetyl)-N-(3-chloro-2-fluorobenzyl)-4-fluoropyrrolidine-2-carboxamide] | < 1 |
| NC(=O)c1nn(CC(=O)N2C[C@H](F)C[C@H]2C(=O)Nc2cccc(OC(F)(F)F)c2F)c2ccc(NC(=O)Nc3ccon3)cc12 [Compound 25, 1-(2-((2S,4R)-4-fluoro-2-(2-fluoro-3-(trifluoromethoxy)phenylcarbamoyl)pyrrolidin-1-yl)-2-oxoethyl)-5-(3-isoxazol-3-ylureido)-1H-indazole-3-carboxamide] | < 1 |

Same assay, conditions: Table 2; Factor D 80 nM, substrate Z-L-Lys-SBzl; read-out: IC50

| IC50 [µM] | SMILES |
| --- | --- |
| < 1 | NC(=O)c1nn(CC(=O)N2C[C@H](F)C[C@H]2C(=O)Nc2cccc(-c3ccccc3Cl)c2F)c2cc(C(=O)N3CCOCC3)sc12 [Compound 59, 1-(2-((2S,4R)-2-(2′-chloro-2-fluorobiphenyl-3-ylcarbamoyl)-4-fluoropyrrolidin-1-yl)-2-oxoethyl)-5-(morpholine-4-carbonyl)-1H-thieno[3,2-c]pyrazole-3-carboxamide] |
| < 1 | CC(C)(C)C(=O)Nc1nc2c(s1)c(C(N)=O)nn2CC(=O)N1C[C@H](F)C[C@H]1C(=O)NCc1cccc(Cl)c1F [Compound 56, 1-(2-((2S,4R)-2-(3-chloro-2-fluorobenzylcarbamoyl)-4-fluoropyrrolidin-1-yl)-2-oxoethyl)-5-pivalamido-1H-pyrazolo[3,4-d]thiazole-3-carboxamide] |

Same assay, conditions: Table 3; factor D inhibition assay; read-out: IC50 (Stars)

| IC50 [µM] | SMILES |
| --- | --- |
| 1 to 10 | Cc1cccc(NC(=O)[C@@H]2[C@H]3CC[C@H](C3)N2C(=O)Cn2cc(C(N)=O)c3cc(C(=O)N4CCCC(F)(F)C4)ccc32)n1 [Compound 206, 5-(3,3-difluoropiperidine-1-carbonyl)-1-(2-((1R,3S,4S)-3-((6-methyl-pyridin-2-yl)-carbamoyl)-2-aza-bicyclo[2.2.1]heptan-2-yl)-2-oxoethyl)-1H-indole-3-carboxamide] |
| < 1 | CC(=O)c1nn(CC(=O)N2C[C@H](F)C[C@H]2C(=O)Nc2cccc(Br)n2)c2ccc(NC(=O)C3CCCC3(F)F)cc12 (stereo partly drawn) [Compound 230] |
| > 10 | CC(=O)c1cn(CC(=O)N2C[C@H](F)C[C@H]2CCNS(=O)(=O)c2ccccc2)c2ccc(C(=O)NS(=O)(=O)C3CC3)cc12 [Compound 174, 3-acetyl-N-(cyclopropylsulfonyl)-1-(2-((2R,4R)-4-fluoro-2-(2-(phenylsulfonylamido)ethyl)pyrrolidin-1-yl)-2-oxoethyl)-1H-indole-5-carboxamide] |
| < 1 | CC(=O)c1cn(CC(=O)N2C[C@H](F)C[C@H]2C(=O)NCc2cccc(Cl)c2F)c2ccc(C(=O)NS(=O)(=O)C3CC3)cc12 [Compound 208, 3-acetyl-1-(2-((2S,4R)-2-((3-chloro-2-fluorobenzyl)carbamoyl)-4-fluoropyrrolidin-1-yl)-2-oxoethyl)-N-(cyclopropylsulfonyl)-1H-indole-5-carboxamide] |
| 1 to 10 | CC(=O)c1cn(CC(=O)N2C[C@H](F)C[C@H]2CCNS(=O)(=O)c2ccccc2)c2ccc(NC(=O)N3CCCC(F)(F)C3)cc12 [Compound 201, N-(3-acetyl-1-(2-((2R,4R)-4-fluoro-2-(2-(phenylsulfonamido)ethyl)pyrrolidin-1-yl)-2-oxoethyl)-1H-indol-5-yl)-3,3-difluoro-piperidine-1-carboxamide] |
